Source: publication PMC10362274 (iScience, 2023)

Target: HLA-A∗02:01 (Homo sapiens, UniProt P04439, D140Y/D185E/D98H/E176V/E277Q/G131W/G231S/I119V/I121R/I166T/I218V/L300P/L318F/N151K/N90K/P208A/P217A/Q86G/Q94H/R138H/R169H/T345S)
Format: binding
Conditions: n = 2

YM2SODGTM6SOSQV [M2SOM6SO]
IC50 compared with the native peptide: increased
